Reference: BindingDB's records for doi:10.1023/a:1006986824213 (1999)
pKi: −log10 of the molar value. Structures can show the parent of a compound that is named as a salt.

Tests used:
[1] = molecular target: 5-hydroxytryptamine receptor 2A (Rattus norvegicus, UniProt P14842)
[2] = molecular target: Sodium-dependent dopamine transporter (Rattus norvegicus, UniProt P23977)
[3] = molecular target: T1, 5-hydroxytryptamine receptor 1A (Rattus norvegicus, UniProt P19327)
T1 sequence (P19327 whole entry): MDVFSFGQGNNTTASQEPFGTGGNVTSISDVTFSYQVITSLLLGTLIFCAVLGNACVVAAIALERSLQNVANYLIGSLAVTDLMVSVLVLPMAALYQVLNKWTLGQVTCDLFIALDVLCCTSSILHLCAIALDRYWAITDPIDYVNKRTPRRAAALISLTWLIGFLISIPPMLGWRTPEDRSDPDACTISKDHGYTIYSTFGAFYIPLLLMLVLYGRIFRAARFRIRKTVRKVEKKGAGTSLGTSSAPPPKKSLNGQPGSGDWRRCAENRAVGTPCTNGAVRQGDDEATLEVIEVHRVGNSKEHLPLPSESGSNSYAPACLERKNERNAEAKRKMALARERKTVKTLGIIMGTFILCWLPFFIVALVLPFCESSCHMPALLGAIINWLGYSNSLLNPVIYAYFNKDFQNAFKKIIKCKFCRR

D(2) dopamine receptor = D(2) dopamine receptor (Rattus norvegicus, UniProt P61169)
Chain of D(2) dopamine receptor (P61169 whole entry): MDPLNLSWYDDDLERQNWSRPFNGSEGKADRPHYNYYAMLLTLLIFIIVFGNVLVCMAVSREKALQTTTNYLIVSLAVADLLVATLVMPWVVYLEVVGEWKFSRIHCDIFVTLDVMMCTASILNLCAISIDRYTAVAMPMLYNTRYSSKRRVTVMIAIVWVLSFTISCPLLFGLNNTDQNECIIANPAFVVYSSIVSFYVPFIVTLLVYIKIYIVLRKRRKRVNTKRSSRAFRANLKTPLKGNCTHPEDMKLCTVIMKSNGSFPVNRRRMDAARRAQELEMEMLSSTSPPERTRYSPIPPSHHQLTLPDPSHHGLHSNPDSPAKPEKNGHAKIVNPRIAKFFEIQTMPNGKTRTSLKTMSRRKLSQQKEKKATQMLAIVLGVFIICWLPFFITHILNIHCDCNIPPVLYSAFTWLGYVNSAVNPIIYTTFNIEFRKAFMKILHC

[4] = molecular target: T2, Alpha-1A adrenergic receptor (Rattus norvegicus, UniProt P43140)
T2 sequence (P43140 whole entry): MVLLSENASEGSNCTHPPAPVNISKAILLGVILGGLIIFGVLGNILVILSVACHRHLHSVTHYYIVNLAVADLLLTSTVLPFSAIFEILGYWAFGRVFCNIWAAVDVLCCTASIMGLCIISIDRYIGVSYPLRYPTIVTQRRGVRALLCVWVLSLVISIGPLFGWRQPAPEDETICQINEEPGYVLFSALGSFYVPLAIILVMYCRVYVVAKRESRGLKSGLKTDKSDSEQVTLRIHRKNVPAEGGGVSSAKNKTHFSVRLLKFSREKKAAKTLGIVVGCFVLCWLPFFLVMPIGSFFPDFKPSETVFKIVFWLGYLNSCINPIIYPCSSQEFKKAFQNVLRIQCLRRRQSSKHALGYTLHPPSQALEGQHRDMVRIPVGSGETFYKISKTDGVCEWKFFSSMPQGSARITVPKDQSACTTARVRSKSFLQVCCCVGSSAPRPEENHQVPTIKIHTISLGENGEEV

[5] = molecular target: T3, 5-hydroxytryptamine receptor 2C (Rattus norvegicus, UniProt P08909)
T3 sequence (P08909 whole entry): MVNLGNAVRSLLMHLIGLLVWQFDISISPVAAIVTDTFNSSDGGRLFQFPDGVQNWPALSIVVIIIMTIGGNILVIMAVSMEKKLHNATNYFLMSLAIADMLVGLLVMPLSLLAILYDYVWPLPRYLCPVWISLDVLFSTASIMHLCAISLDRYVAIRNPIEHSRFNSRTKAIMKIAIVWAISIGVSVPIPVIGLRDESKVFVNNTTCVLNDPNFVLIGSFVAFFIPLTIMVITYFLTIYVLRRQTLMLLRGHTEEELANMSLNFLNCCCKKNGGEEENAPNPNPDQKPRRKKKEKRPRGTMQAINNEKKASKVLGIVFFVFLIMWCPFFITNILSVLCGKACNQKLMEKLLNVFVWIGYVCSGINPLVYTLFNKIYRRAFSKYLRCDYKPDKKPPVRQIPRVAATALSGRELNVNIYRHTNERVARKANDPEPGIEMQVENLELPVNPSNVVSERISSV

[6] = molecular target: T4, Alpha-2C adrenergic receptor (Rattus norvegicus, UniProt P22086)
T4 sequence (P22086 whole entry): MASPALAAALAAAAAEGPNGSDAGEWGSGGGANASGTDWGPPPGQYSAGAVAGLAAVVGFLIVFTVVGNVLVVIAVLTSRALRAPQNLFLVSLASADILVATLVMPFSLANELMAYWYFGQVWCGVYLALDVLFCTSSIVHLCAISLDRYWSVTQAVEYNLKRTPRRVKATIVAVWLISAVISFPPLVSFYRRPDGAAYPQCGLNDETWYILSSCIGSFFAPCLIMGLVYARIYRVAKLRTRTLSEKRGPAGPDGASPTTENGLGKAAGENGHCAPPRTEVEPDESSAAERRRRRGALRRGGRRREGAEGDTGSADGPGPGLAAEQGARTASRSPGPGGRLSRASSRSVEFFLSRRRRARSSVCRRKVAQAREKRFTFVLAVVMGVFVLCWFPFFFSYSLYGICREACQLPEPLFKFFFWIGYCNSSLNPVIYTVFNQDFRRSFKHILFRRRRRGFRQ

[7] = molecular target: T5, Muscarinic acetylcholine receptor M2 (Rattus norvegicus, UniProt P10980)
T5 sequence (P10980 whole entry): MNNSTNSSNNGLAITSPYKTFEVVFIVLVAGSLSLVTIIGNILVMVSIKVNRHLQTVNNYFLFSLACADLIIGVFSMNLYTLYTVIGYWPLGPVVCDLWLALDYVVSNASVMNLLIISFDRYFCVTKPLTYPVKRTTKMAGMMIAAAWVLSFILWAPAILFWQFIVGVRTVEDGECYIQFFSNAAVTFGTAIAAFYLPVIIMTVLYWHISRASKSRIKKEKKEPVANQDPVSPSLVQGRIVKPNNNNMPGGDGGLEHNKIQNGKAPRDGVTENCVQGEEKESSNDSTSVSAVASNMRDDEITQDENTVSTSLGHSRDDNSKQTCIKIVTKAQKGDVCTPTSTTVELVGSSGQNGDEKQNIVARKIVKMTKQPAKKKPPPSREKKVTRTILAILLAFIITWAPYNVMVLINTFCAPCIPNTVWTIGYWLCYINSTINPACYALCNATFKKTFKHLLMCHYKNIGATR

D(1A) dopamine receptor = D(1A) dopamine receptor (Rattus norvegicus, UniProt P18901)
Chain of D(1A) dopamine receptor (P18901 whole entry): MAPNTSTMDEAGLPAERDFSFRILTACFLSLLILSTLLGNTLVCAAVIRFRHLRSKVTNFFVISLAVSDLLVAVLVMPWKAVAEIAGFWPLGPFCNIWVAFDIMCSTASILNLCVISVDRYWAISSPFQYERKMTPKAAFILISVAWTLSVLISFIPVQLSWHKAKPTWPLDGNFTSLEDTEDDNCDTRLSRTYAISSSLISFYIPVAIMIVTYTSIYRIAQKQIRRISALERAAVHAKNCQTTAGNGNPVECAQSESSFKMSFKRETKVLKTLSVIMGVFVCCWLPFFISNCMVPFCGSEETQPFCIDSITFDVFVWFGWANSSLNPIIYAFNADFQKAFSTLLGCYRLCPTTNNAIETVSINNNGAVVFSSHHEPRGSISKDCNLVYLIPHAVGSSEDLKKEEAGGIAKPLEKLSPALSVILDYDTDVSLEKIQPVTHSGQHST

Histamine H1 receptor = Histamine H1 receptor (Rattus norvegicus, UniProt P31390)
Chain of Histamine H1 receptor (P31390 whole entry): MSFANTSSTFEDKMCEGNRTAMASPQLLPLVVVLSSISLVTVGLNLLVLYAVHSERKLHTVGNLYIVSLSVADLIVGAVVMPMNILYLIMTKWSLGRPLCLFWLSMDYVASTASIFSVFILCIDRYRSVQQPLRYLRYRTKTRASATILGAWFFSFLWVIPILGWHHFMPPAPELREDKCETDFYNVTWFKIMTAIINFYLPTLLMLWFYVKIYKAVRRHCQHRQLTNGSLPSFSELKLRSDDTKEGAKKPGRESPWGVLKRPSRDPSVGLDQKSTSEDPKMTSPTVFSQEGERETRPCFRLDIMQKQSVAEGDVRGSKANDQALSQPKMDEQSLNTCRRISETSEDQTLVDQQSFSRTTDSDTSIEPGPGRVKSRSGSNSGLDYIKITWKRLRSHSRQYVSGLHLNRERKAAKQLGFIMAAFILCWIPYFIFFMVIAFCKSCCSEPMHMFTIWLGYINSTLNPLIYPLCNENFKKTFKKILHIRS

[8] = molecular target: Norepinephrine transporter (Rattus norvegicus, UniProt Q9JIA2)
[9] = molecular target: Beta-2 adrenergic receptor (Rattus norvegicus, UniProt P10608)
Chain of Beta-2 adrenergic receptor (P10608 whole entry): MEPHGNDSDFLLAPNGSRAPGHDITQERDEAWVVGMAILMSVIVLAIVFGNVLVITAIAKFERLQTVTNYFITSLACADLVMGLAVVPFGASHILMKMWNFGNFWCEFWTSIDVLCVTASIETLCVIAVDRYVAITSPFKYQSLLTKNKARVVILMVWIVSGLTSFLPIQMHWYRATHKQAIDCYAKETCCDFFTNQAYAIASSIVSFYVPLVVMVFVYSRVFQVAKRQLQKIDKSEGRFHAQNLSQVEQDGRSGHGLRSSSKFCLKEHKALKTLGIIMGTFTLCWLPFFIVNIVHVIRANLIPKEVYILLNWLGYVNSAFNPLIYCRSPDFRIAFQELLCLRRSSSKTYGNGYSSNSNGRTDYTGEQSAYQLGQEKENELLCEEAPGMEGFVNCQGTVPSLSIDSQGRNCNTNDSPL

[10] = molecular target: Sodium-dependent serotonin transporter (Rattus norvegicus, UniProt P31652)
Chain of Sodium-dependent serotonin transporter (P31652 whole entry): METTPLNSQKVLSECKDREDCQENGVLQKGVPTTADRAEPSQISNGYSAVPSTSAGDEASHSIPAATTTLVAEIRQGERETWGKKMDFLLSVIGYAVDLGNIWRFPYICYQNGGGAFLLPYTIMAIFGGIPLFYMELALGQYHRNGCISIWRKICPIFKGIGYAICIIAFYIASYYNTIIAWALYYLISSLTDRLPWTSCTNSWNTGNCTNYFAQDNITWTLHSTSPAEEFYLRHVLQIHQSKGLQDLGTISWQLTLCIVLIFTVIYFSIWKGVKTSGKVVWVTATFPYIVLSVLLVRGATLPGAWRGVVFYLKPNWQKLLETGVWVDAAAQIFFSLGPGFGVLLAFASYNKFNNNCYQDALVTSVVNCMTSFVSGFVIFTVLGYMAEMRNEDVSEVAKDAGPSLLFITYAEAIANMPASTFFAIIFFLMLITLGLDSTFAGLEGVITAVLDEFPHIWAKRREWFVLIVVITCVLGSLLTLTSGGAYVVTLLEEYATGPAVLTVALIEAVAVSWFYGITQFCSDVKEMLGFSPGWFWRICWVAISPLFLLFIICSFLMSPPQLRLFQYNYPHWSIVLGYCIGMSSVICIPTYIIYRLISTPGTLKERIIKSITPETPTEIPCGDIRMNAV

Chain of Sodium-dependent dopamine transporter (P23977 whole entry): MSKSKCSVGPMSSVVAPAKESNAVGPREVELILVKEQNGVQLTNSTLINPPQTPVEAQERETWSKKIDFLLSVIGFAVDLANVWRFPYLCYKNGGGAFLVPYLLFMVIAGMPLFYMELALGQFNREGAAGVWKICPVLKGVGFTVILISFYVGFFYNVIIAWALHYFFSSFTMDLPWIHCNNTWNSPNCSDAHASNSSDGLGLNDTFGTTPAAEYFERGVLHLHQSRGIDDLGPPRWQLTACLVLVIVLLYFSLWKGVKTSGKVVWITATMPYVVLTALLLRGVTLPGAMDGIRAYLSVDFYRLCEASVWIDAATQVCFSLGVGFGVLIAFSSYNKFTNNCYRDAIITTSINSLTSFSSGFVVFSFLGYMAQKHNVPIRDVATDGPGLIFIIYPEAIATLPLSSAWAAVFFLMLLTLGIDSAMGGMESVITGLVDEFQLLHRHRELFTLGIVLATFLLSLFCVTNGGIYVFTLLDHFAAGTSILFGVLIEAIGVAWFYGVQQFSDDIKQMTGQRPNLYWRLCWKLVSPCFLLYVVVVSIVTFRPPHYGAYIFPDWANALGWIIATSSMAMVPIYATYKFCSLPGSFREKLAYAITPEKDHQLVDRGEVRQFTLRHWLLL
Chain of 5-hydroxytryptamine receptor 2A (P14842 whole entry): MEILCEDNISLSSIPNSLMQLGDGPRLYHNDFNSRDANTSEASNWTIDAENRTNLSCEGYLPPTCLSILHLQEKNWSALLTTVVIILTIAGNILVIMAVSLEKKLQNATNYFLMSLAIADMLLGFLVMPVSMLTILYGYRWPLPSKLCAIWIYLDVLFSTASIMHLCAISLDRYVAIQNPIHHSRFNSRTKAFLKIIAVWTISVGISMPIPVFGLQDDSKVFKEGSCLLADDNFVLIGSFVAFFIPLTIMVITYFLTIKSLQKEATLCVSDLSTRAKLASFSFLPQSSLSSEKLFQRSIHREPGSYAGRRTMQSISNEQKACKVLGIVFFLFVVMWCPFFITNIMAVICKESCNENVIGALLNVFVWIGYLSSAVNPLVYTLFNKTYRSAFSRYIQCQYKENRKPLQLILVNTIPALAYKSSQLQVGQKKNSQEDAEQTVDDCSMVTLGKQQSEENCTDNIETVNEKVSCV

Structure (SMILES)	pKi [1]	pKi [2]	pKi [3]	pKi (D(2) dopamine receptor)	pKi [4]	pKi [5]	pKi [6]	pKi [7]	pKi (D(1A) dopamine receptor)	pKi (Histamine H1 receptor)	pKi [8]	pKi [9]	pKi [10]
CN(C)CCC=C1c2ccccc2CCc2ccccc21	7.96	5.28	< 5.00	6.07	7.16	8.10	6.47	8.05	7.09	8.08	7.62	< 5.00	–
CCc1nn(CCCN2CCN(c3cccc(Cl)c3)CC2)c(=O)n1CCOc1ccccc1 [2-{3-[4-(3-chlorophenyl)piperazin-1-yl]propyl}-5-ethyl-4-(2-phenoxyethyl)-2,4-dihydro-3H-1,2,4-triazol-3-one]	–	6.33	6.00	–	7.38	–	5.92	< 5.00	5.82	6.43	6.96	< 5.00	–
COCCCC/C(=N\OCCN)c1ccc(C(F)(F)F)cc1 [(1E)-5-methoxy-1-[4-(trifluoromethyl)phenyl]pentan-1-one O-(2-aminoethyl)oxime]	< 5.00	< 5.00	< 5.00	< 5.00	5.32	5.17	5.72	< 5.00	< 5.00	< 5.00	6.21	< 5.00	–
CC(NC(C)(C)C)C(=O)c1cccc(Cl)c1 (stereo unspecified) [BUPROPION HYDROCHLORIDE]	–	6.24	–	< 5.00	< 5.00	< 5.00	< 5.00	< 5.00	< 5.00	–	5.85	< 5.00	–
CN(C)CCC=C1c2ccccc2CSc2ccccc21 [CAS_897-15-4]	6.82	5.29	5.40	–	6.38	–	7.92	7.59	–	8.40	7.15	–	–
CN(CCCN1c2ccccc2CCc2ccccc21)CC(=O)c1ccc(Cl)cc1 [CAS_23047-25-8]	5.92	5.48	< 5.00	5.17	6.21	–	5.68	6.52	6.30	6.00	8.57	< 5.00	6.06
CN(C)CCCC1(c2ccc(F)cc2)OCc2cc(C#N)ccc21 (stereo unspecified) [CITALOPRAM HYDROBROMIDE]	–	–	< 5.00	< 5.00	–	6.20	< 5.00	5.25	< 5.00	–	–	< 5.00	–
COc1ccc(C(CN(C)C)C2(O)CCCCC2)cc1 (stereo unspecified) [NSC_62923]	–	–	< 5.00	< 5.00	–	< 5.00	< 5.00	< 5.00	< 5.00	< 5.00	–	–	–
Fc1ccc([C@@H]2CCNC[C@H]2COc2ccc3c(c2)OCO3)cc1 [PAROXETINE]	–	–	< 5.00	< 5.00	< 5.00	< 5.00	5.05	6.68	< 5.00	< 5.00	–	< 5.00	–
CNCC[C@@H](Oc1ccc(C(F)(F)F)cc1)c1ccccc1 [Prozac]	–	–	–	< 5.00	–	–	–	–	< 5.00	5.49	–	< 5.00	–
CN[C@@H]1CC[C@@H](c2ccc(Cl)c(Cl)c2)c2ccccc21 [[4-(3,4-Dichloro-phenyl)-1,2,3,4-tetrahydro-naphthalen-1-yl]-methyl-amine]	–	–	< 5.00	< 5.00	5.55	–	–	5.96	5.20	< 5.00	–	< 5.00	–
